# Laboratory results taken from ChEMBL document CHEMBL3392922, “MMV box screening in the Dd2 P. falciparum strain”.
# Tested on: Plasmodium falciparum
# Assay: MMV: IC50 determined against P. falciparum Dd2-luc strain using a Malaria Sybr Green I Fluorescence assay. Starting conditions were 1% trophozoite synchronised parasites at 2% haematocrit. Fluorescence detection completed after 48hr incubation at 37 degrees C under 1% O2, 3% CO2 and balance N2.
# Type: functional, organism-based
# Settings: Dd2, 48 h
row,Compound,IC50 [nM]
1,O=C(Nc1ccc(Cl)c(Cl)c1)Nc1ccc(Cl)c(Cl)c1,3880
2,COc1ccc(-c2cc3c(nn2)-c2ccccc2C3=O)cc1,731
3,COc1ccc(-c2c(C)nn3c(N)c(C#N)cnc23)cc1OC,305
4,COc1ccc2c(c1)C1(Nc3ccccc3-c3nc4ccccc4n31)C(=O)N2 (stereo not given),239
5,COc1cccc(Cn2c(Oc3ccccc3)nc3c2c(=O)n(C)c(=O)n3C)c1,1150
6,OC(CNCC1CCCO1)Cn1c2ccc(Cl)cc2c2cc(Cl)ccc21 (stereo not given),734
7,CCN(CC)CCNc1ncnc2c1[nH]c1ccc(Cl)cc12,373
8,CN1CCN(c2ncnc3c2[nH]c2ccc(Cl)cc23)CC1,1180
9,CC1(c2ccccc2)Nc2ccccc2-c2nc3ccccc3n21 (stereo not given),263
10,COc1ccc(CCN2C(=O)c3[nH]nc(-c4cc(Cl)c(C)cc4O)c3C2c2ccccc2F)cc1 (stereo not given),3190
11,COc1cccc(C2(C)Nc3ccccc3-c3nc4ccccc4n32)c1 (stereo not given),1410
12,CC(C)CNC(=O)c1c(N)n(CCc2ccccc2F)c2nc3ccccc3nc12,680
13,CC(C)(C)CC(C)(C)NCC(O)COc1ccc(Cl)cc1Cl (stereo not given),494
14,Cc1cccc(-n2ncc3c(O)nc(-n4nc(C)cc4NC(=O)c4cc5ccccc5o4)nc32)c1,994
15,O=C(Nc1ccccc1O)c1ccc(Oc2cccc(C(=O)Nc3ccccc3O)c2)cc1,202
16,Cc1ccc(-c2cc3c(nn2)-c2ccccc2C3=O)cc1,1260
17,Oc1ccccc1CN1CCC2(CCCN(Cc3ccccc3F)C2)C1 (stereo not given),647
18,N=c1n(CCN2CCCCC2)c2ccccc2n1CC(O)c1cccc(Br)c1 (stereo not given),1110
19,COc1cccc(O)c1CN1CCC2(CCCN(Cc3ccc(F)cc3)C2)C1 (stereo not given),502
20,CCOC(=O)C1=C(C)N=c2sc(=Cc3ccccc3O)c(=O)n2C1c1ccc(OC)c2ccccc12 (stereo not given),1520
21,Cc1ccc(-c2cc(C(=O)Nc3ccc(S(=O)(=O)N4CCCCC4)cc3)[nH]n2)c(O)c1,2350
22,CCOC(=O)C1=C(C)N=c2sc(=Cc3cc(Cl)ccc3O)c(=O)n2C1c1ccc(OC)cc1 (stereo not given),527
23,COc1ccc(-c2nc(NC(=O)CS(=O)(=O)c3ccc(F)cc3)sc2C)cc1,515

row,Compound,IC50 [nM]
1,FC(F)(F)c1cccc(Nc2nc3ccccc3nc2Nc2cccc(C(F)(F)F)c2)c1,739
2,FC(F)(F)c1ccc(Nc2nnnc3ccccc23)cc1,3990
3,c1ccc(-c2ccc(-c3nc4ccccc4[nH]3)cc2)cc1,2000
4,CCC(C)NCC(O)(c1ccc(Cl)cc1)c1ccc(Cl)cc1 (stereo not given),551
5,COc1ccc(CN2CCCC(C(=O)c3ccc(C(F)(F)F)cc3)C2)c(O)c1 (stereo not given),635
6,COc1cccc(NC(=O)[C@H](C(C)C)n2c(=O)[nH]c3ccccc3c2=O)c1,158
7,O=c1nc(C=Cc2ccc(Br)cc2)oc2ccccc12,5930
8,COc1ccc2nc(N)nc(C)c2c1,1870
9,COc1cccc(NC(=O)Cn2c(C)c(C#N)c3ccccc32)c1,1270
10,CCC(c1ccccc1)c1nn2c(-c3cccs3)nnc2s1 (stereo not given),338
11,CC(=O)c1ccc(NC(=O)CSc2nc(-c3ccccc3Cl)ns2)cc1,1690
12,CC(C)(C)c1ccc(O)c(CNC2CCCCC2)c1,181
13,O=[N+]([O-])c1ccc(C=NNc2nc3ccccc3[nH]2)cc1,242
14,COc1ccc(CCN2CCC(CN(C)Cc3cnn(-c4ccccc4)c3)CC2)cc1,2680
15,O=C(NC(c1ccccc1)c1ccc2cccnc2c1O)c1ccccc1 (stereo not given),426
16,COCCNC(=O)c1ccc(OC2CCN(Cc3ccc(F)c(F)c3)CC2)c(Cl)c1,754
17,CCCCNc1nc(NC(C)(C)C)nc(NC(C)(C)C)n1,893
18,COc1ccc(CNC(=O)c2cc3c(=O)n4ccccc4nc3n(CCc3ccccc3)c2=N)cc1,1230
19,CCOC(=O)c1c(NC(=O)c2ccccc2)sc2c(O)c(CN(CC)CC)ccc12,127
20,O=C(NC1CCCC1)c1ccc(N2CCC(NCc3cccc(C(F)(F)F)c3)CC2)cc1,468
21,CCOc1cc(Br)c(C(C)NC(=O)c2cccc(OC)c2)cc1OCC (stereo not given),1440
22,CC(C)=CCN1CCC(C(=O)Nc2ccc(-c3nc4ccccc4[nH]3)cc2)CC1,1240
23,CCOc1cc(Cl)c(C(C)NC(=O)c2cccc(OC)c2)cc1OCC (stereo not given),649

row,Compound,IC50 [nM]
1,O=C(CCc1ccco1)NC1CCN(CC2(c3ccc(Cl)cc3)CCC2)CC1,1030
2,Cc1cc(Nc2ccc(C)c(Cl)c2)n2nc(C(F)(F)F)nc2n1,1240
3,FC(F)(F)c1cccc(Nc2nc(-c3ccccc3)nc3ncccc23)c1,885
4,Nc1ccc(-c2nc3cc(Cc4ccc5[nH]c(-c6ccc(N)cc6)nc5c4)ccc3[nH]2)cc1,1820
5,CC(=O)c1sc(NC(=O)Nc2ccc(C)cc2C)nc1C,1970
6,Cn1c(=O)n(C)c2cc(CNCCNc3ccnc4cc(Cl)ccc34)ccc21,197
7,COc1ccc(CNC2CCN(c3ccc(NC(=O)c4cccc(Cl)c4)cc3)CC2)cc1OC,1190
8,COCCN(C(=O)Cc1cccs1)C(C(=O)NCc1ccc(OC)cc1)c1ccc(C(C)C)cc1 (stereo not given),975
9,CC(NCc1ccccc1)c1cc(Cl)ccc1O (stereo not given),498
10,O=c1cc(NC2CCN(CCCc3ccccc3)CC2)c2cc(Cl)ccc2o1,543
11,Cc1ccc(OCCCCCCNCCO)c(C)c1,2480
12,FC(F)(F)c1cccc(CNC2CCN(CCc3ccccc3)CC2)c1,490
13,Oc1ccc(Cl)cc1CNc1nc2ccccc2[nH]1,1000
14,CCOc1cc(Cl)c(C(C)NC(=O)c2ccccc2)cc1OCC (stereo not given),828
15,C=CC12CCN(CC1)C(C(O)c1ccnc3ccc(OC)cc13)C2 (stereo not given),418
16,O=C(c1ccccc1F)N(Cc1ccc(Cl)cc1)c1ccccn1,1190
17,COCCn1c(C)nc2ccccc2c1=O,930
18,O=C(Nc1cccc(-c2nc3ccccc3[nH]2)c1)c1cccc(NC(=O)c2ccco2)c1,506
19,COc1ccc(C(=O)Nc2ccc(Cl)cc2C(=O)Nc2ccncc2)cc1,810
20,O=C(Nc1ccc(CN2CCOCC2)cc1)c1ccc(-c2ccc(Br)cc2)o1,958
21,COc1ccccc1CNC(=O)CCn1c(=O)[nH]c2ccccc2c1=O,518
22,OC(Cn1nnc2ccccc21)Cn1c2ccc(Br)cc2c2cc(Br)ccc21 (stereo not given),2030
23,O=C(Nc1ccc(Cl)cc1)N1CCN(c2ccc3nncn3n2)CC1,1040

row,Compound,IC50 [nM]
1,CN(C)c1ccc(-c2nc3cc(N)ccc3[nH]2)cc1,1240
2,Cc1ccc2cc3c(N)c4c(C)ccc(C)c4nc3nc2c1,1440
3,COc1ccccc1C(=O)ON=C(N)Cc1cccc2ccccc12,4020
4,O=C(CSc1ccc2nnc(-c3cccc(F)c3)n2n1)Nc1ccc2c(c1)OCO2,541
5,CCCCNCC(O)(c1ccc(Cl)cc1)c1ccc(Cl)cc1,420
6,CCCC(c1nnnn1C1CCCCC1)N1CCN(C(=O)c2ccco2)CC1 (stereo not given),518
7,COc1cc(C(=O)ON=C(N)Cc2cccc3ccccc23)cc(OC)c1OC,3940
8,CCCc1cc(O)c2c3c(c(=O)oc2c1)CN(C)CC3,2570
9,CC(C)(C)C(=O)Nc1ccc(C(=O)Nc2cccc(-c3nc4ccccc4[nH]3)c2)cc1,753
10,COc1ccc(-c2nonc2NC(=O)c2cccc(C)c2)cc1OC,904
11,Cc1ccc(CN2CCC(C(=O)Nc3ccc(-c4cc5ccccc5[nH]4)cc3)CC2)o1,459
12,OC(CNC1CCCCC1)Cn1c2ccc(I)cc2c2cc(I)ccc21 (stereo not given),436
13,CCn1c(SCC(=O)Nc2cc(C(F)(F)F)ccc2Cl)nc2ccccc2c1=O,903
14,O=C(Nc1ccsc1C(=O)NC1CCCCC1)c1ccc(F)cc1,1040
15,O=C(Nc1ccc(Cl)cc1C(=O)Nc1ccncc1)c1ccc(Cl)cc1Cl,866
16,O=C(Nc1cccc(C(F)(F)F)c1)c1cc(Cl)ccc1O,1090
17,CCc1ccc(CNCC(O)c2ccccc2)cc1 (stereo not given),1870
18,CCOc1ccc(-c2nonc2NC(=O)c2cccc(C)c2)cc1OCC,154
19,COc1ccc(C2N(C)c3ccccc3N2C)cc1,1100
20,COc1cccc(C(=O)NC(c2ccc(C)cc2)c2cc(Cl)c3cccnc3c2O)c1 (stereo not given),940
21,COc1ccc2c(=O)cc(C(Cl)(Cl)Cl)oc2c1,958
22,CC(C)(C)CC(C)(C)NCC(O)COc1ccc2c(c1)CCC2 (stereo not given),1760
23,CCOc1ccc(/C=C/c2nc(=O)c3ccccc3o2)cc1,740

row,Compound,IC50 [nM]
1,O=C(Nc1ccccc1O)c1ccc(-c2ccc(Cl)cc2Cl)o1,2990
2,O=C(Nc1nc(-c2ccccn2)cs1)c1ccccc1Br,1610
3,O=C(Nc1ccc(F)c(Cl)c1)Nc1ccc(Cl)c(Cl)c1,1830
4,CCOC(=O)C1(Cc2ccccc2)CCN(Cc2cccc(OC)c2O)CC1,2200
5,Oc1ccc(C(=C(Cl)Cl)c2ccc(O)cc2)cc1,1910
6,CCOc1ccc(-c2nc(NC(=O)c3cccc(S(C)(=O)=O)c3)sc2C)cc1,1440
7,COc1ccc(C(=O)NC(c2ccccc2Cl)c2cc(Cl)c3cccnc3c2O)cc1 (stereo not given),978
8,COc1ccc(CN2CCN(Cc3ccccc3)CC2)c(O)c1,1140
9,CCCCCCc1cc(O)c2c3c(c(=O)oc2c1)CCC(C)C3 (stereo not given),568
10,COc1ccccc1N1CCN(C(CNS(=O)(=O)c2ccc(Cl)cc2)c2cccnc2)CC1 (stereo not given),913
11,Oc1ccc(Br)cc1CN1CCN(Cc2ccc(Cl)cc2)CC1,1520
12,CCCc1c(C)nc2ccccc2c1O,637
13,CC1=C(CC(=O)c2cccc([N+](=O)[O-])c2)C(=O)c2ccccc2C1=O,129
14,CCCCCCc1cc2cc(-c3nc4ccccc4[nH]3)c(=Nc3ccccc3C)oc2cc1O,5720
15,CCOc1c(Cl)cc(CNC(C)C(O)c2ccccc2)cc1OC (stereo not given),1360
16,COc1ccc(C(=O)C2CC2c2ccc(Cl)cc2)cc1 (stereo not given),3290
17,CCN(CC)CCCNc1nc(-c2ccc(Cl)cc2)nc2ccccc12,425
18,O=c1c2c([nH]c3ccccc13)CCCC2,876
19,CN1c2ccccc2N(C)C1c1ccc2c(c1)OCO2,1150
20,CC1CC2=C(CC1CNCCCN(C)C)C(C)(C)CCC2 (stereo not given),476
21,O=C(NCC1Cc2cccc(-c3ccncc3)c2O1)c1csc2c1CCCC2 (stereo not given),1690
22,Cc1c(C)n(CC(O)CNC2CCCCC2C)c2ccccc12 (stereo not given),484
23,C=C(C)CCC(C)N1CCC(N2CCC(C(=O)NCCc3ccccc3)CC2)CC1 (stereo not given),1460
